Experimental findings from patent US20080293076A1, “Method to improve barrier function of cell-cell junctions” (UMC Utrecht Holding B.V., priority 2007, published 2008) are described below.

The experiment relates to HUVEC. The experiment is described as follows: Endothelial permeability assay: electrical resistance across HUVEC monolayer (ECIS). The format is cell-based, human. The note with it: for decreased resistance in PDZ-GEF2-depleted cells: PDZ-GEF2 siRNA. The protocol: FIG. 2: PDZ-GEF2 knockdown in HUVECs leads to immature adherens junction and decreases endothelial resistance. Panel A: PDZ-GEF2 knockdown leads to immature VE-cadherin-based junctions in endothelial cells. HUVEC were transfected twice with scrambled, Epac1 or PDZ-GEFs siRNA and replated on glass coverslips. The cells were fixed when they formed a monolayer and immunostained with anti-VE-cadherin antibody. Panel B: Basal electrical resistance across HUVEC monolayers. Cells were treated as described in A and replated on electrodes. ECIS was measured continuously for 15 hours and the values reported are the final time points. […] The values reported correspond to the endothelial resistance measured 90 minutes after adding 007 to the culture media. * p<0.03 control mock vs 007; p<0.001 PDZ-GEF2.285 mock vs 007.
293T and A549 cells were transfected using FuGENE6 reagent for 48 hours (Roche Diagnostics Corporation). For siRNA, A549 cells and HUVEC were transfected using oligofectamine (Invitrogen) for 24 to 48 hours according to the manufacturer's instructions. In the case of the HUVEC, transfection was repeated after 24 hours. Samples were analyzed 48 hours after the second round of transfection. Oligos sequences (Dharmacon): PDZ-GEF2 (285: GGATCCAACTTATATAGAA) (SEQ ID NO:______); (289: GACACGGATTGTATTATTA) (SEQ ID NO:______); *Epac1 (GCACCTA CGTCTGCAACAA) (SEQ ID NO:______) and (CCATCATCCTGCGAGAAGA) (SEQ ID NO:______). 8-pCPT-2′O-Me-cAMP/8-pCPT -2′-OMe-cAMP (Biolog) was used at a final concentration of 100 μM. Quantification of the PDZ-GEF2 knockdown was performed using Scion Image (Scion Corporation).
To assess endothelial permeability, we measured electrical resistance continuously across endothelial cell monolayer using the methodology known as “Electric Cell-Substrate Impedance Sensing” (ECIS).^[21] Briefly, HUVEC were grown to confluence on small gold electrodes and ECIS was subsequently monitored for up to 15 hours. Data was analyzed using the Applied Biophysics software.

Setting [1] is: HUVEC, 100 μM, 30-minute stimulation.

Structures are written as SMILES.

Take `CO[C@@H]1[C@@H]2OP(=O)(O)OC[C@H]2O[C@H]1n1c(Sc2ccc(Cl)cc2)nc2c(N)ncnc21` [8-pCPT-2′-OMe-cAMP]: the “endothelial resistance in PDZ-GEF2 knockdown HUVEC” value (90 minutes after adding 007, PDZ-GEF2.285, p<0.001 mock vs 007) is listed as “rescues the PDZ-GEF2 knockdown phenotype”. The “endothelial resistance in control HUVEC” value (90 minutes after adding 007 to the culture media, p<0.03 mock vs 007) is “increases endothelial resistance”. For the same compound, under “HUVEC transfected with Epac1 siRNA, 100 μM”, the “electrical resistance in Epac1 siRNA cells” value is on record as “minimal effect”. Under setting [1], the “electrical resistance in scrambled siRNA cells” value is recorded as “increased resistance” and the “decreased resistance in PDZ-GEF2-depleted cells” value is reported as “completely rescued”. Also, where the note is “HUVEC, 100 μM, 30-minute stimulation, listed as 8-pCPT-2′OMe-cAMP”, the “decreased resistance in PDZ-GEF2-depleted cells” value is recorded as “rescued”.
